From patent publication US20230250096A1, “SUBSTITUTED PHENYL-1H-PYRROLO[2,3-c] PYRIDINE DERIVATIVES” (Janssen Pharmaceutica NV, priority 2021, published 2023) come the findings set out here.

In one test the test system is MOLM14 cells. Nature of the test: Proliferation assay (spheroid confluence, 8 days), MOLM14. The test is classed as cell-based, human. Conditions: Homo sapiens, MOLM-14, MOLM14; read-out: spheroid assay_MOLM14 IC50. The method, then:
The anti-proliferative effect of menin/MLL protein/protein interaction inhibitor test compounds was assessed in human leukemia cell lines. The cell line MOLM14 harbors a MLL translocation and expresses the MLL fusion protein MLL-AF9, respectively, as well as the wildtype protein from the second allele. OCI-AML3 cells that carry the NPM1c gene mutation were also tested. […] KO-52 was used as a control cell line containing two MLL (KMT2A) wildtype alleles in order to exclude compounds that display general cytotoxic effects.
MOLM14 cells were cultured in RPMI-1640 (Sigma Aldrich) supplemented with 10% heat-inactivated fetal bovine serum (HyClone), 2 mM L-glutamine (Sigma Aldrich) and 50 μg/ml gentamycin (Gibco). KO-52 and OCI-AML3 cell lines were propagated in alpha-MEM (Sigma Aldrich) supplemented with 20% heat-inactivated fetal bovine serum (HyClone), 2 mM L-glutamine (Sigma Aldrich) and 50 μg/ml gentamycin (Gibco).
In order to assess the anti-proliferative effects, 200 MOLM14 cells, 200 OCI-AML3 cells or 300 KO-52 cells were seeded in 200 μl media per well in 96-well round bottom, ultra-low attachment plates (Costar, catalogue number 7007). Cell seeding numbers were chosen based on growth curves to ensure linear growth throughout the experiment. Test compounds were added at different concentrations and the DMSO content was normalized to 0.3%. Cells were incubated for 8 days at 37° C. and 5% CO2. Spheroid like growth was measured in real-time by live-cell imaging (IncuCyteZOOM, Essenbio, 4×objective) acquiring images at day 8. Confluence (%) as a measure of spheroid size was determined using an integrated analysis tool.
In order to determine the effect of the test compounds over time, the confluence in each well as a measure of spheroid size, was calculated. Confluence of the highest dose of a reference compound was used as baseline for the LC (Low control) and the confluence of DMSO treated cells was used as 0% cytotoxicity (High Control, HC).
Absolute IC50 values were calculated as percent change in confluence as follows:
LC=Low Control: cells treated with e.g. 1 μM of the cytotoxic agent staurosporin, or e.g. cells treated with a high concentration of an alternative reference compound
HC=High Control: Mean confluence (%) (DMSO treated cells)
% Effect=100−(100*(Sample−LC)/(HC−LC))
GraphPad Prism (version 7.00) was used to calculate the IC50. Dose-response equation was used for the plot of % Effect vs Log10 compound concentration with a variable slope and fixing the maximum to 100% and the minimum to 0%.

Test [1] deals with T1, menin/MLL (terbium chelate-labeled menin, FITC-MBM1 peptide) (Homo sapiens, UniProt O00255, T541A).
T1 construct: Menin (a.a 1-610-6xhis tag, 2.3 mg/mL in 20 mM Hepes)
T1 sequence (O00255 with tags, fused parts or gaps T541A): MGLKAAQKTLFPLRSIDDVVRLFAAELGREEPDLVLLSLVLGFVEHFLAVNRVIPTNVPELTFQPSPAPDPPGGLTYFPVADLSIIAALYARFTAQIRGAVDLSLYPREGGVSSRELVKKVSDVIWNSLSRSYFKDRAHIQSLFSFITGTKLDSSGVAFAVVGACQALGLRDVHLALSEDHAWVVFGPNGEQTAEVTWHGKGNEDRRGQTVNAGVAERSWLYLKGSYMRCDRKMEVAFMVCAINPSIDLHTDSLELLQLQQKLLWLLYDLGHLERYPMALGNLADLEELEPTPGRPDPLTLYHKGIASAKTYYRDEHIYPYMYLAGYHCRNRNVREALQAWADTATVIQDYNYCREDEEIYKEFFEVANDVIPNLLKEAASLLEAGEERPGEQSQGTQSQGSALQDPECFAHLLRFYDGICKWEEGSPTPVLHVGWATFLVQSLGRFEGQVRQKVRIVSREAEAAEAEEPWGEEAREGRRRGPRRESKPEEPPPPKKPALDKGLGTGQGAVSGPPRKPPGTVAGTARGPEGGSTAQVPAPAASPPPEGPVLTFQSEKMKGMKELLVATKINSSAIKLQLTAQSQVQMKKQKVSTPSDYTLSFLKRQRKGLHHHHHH
Nature of the test: Menin/MLL homogenous time-resolved fluorescence (HTRF) assay. The format is binding. Conditions: 30 min incubation. The method, boiled down: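 Competition binding read by time-resolved FRET (FITC 520 nm over terbium 490 nm) after compound meets labeled menin 1-610-His […] for 30 min, then FITC-MBM1 (75 nM) for 15 min, ambient temperature, 0.5% DMSO. Eleven-point four-fold dilutions, usually starting at 10 μM, fitted to four-parameter curves for IC50.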
Background: TR-FRET usually uses a lanthanide donor and a delayed reading to cut background.

In another test the test system is MEIS1 mRNA expression. Nature of the test: MEIS1 mRNA expression assay (Quantigene Singleplex) in MOLM14 cells. The format is cell-based, human. Conditions: 48 hours incubation. The procedure, abridged:
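Read-out: MEIS1 transcript counts, background-subtracted and divided by RPL28, expressed as fold change over DMSO-treated cells, then dose-response modelled for IC50. MOLM14 cells (3,750/well) received graded compound for 48 h before lysis and QuantiGene hybridization at 55 °C.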

For orientation: IC50 means the concentration needed to halve the response being measured. In the case of `CC(=O)N1CCC(C)(CN2CC[C@H](Cc3cn(-c4ccc(F)cc4C(=O)N(C)C(C)C)c4cncc(C)c34)C2)CC1` (single isomer, unassigned) [Compound 122], the IC50 in the test with MOLM14 cells amounted to 12 nM; in test [1], 0.05 nM; in the test with MEIS1 mRNA expression (Homo sapiens, MOLM-14, 48 h), 18 nM.

For `Cc1cncc2c1c(CC1CN(CC3CCC(=O)NC3)C1)cn2-c1ccc(F)cc1C(=O)N(C)C(C)C` (stereo not shown) [Compound 120], the IC50 in the test on MOLM14 cells was 539 nM; in test [1], 0.054 nM; with MEIS1 mRNA expression (Homo sapiens, MOLM-14, 48 h), 149 nM.

For `Cc1cncc2c1c(CC1CN(CC3CCOCC3)C1)cn2-c1ccc(F)cc1[S@@](=N)(=O)C(C)C` (single isomer, unassigned) [Compound 167b], the IC50 in the test on MOLM14 cells amounted to 99 nM; in test [1] it was 0.118 nM; in the test with MEIS1 mRNA expression (Homo sapiens, MOLM-14, 48 h), 117 nM.

With `Cc1cncc2c1c(CC1CN(CC3CCOCC3)C1)cn2-c1ccc(F)cc1[S@](=N)(=O)C(C)C` (single isomer, unassigned) [Compound 167a], the IC50 is 210 nM with MOLM14 cells; 0.19 nM in test [1]; > 1000 nM in the test on MEIS1 mRNA expression (Homo sapiens, MOLM-14, 48 h).

Consider `Cc1cncc2c1c(C[C@@H]1CCN(CC3CCOCC3)C1)cn2-c1ccc(F)cc1[S@@](=N)(=O)C(C)C` (single isomer, unassigned) [Compound 78c], for which the IC50 was 200 nM in the test on MOLM14 cells; 0.382 nM in test [1]; 416 nM with MEIS1 mRNA expression (Homo sapiens, MOLM-14, 48 h).

On to `CNC(=O)[C@H]1CC[C@H](CN2CC(C)(Cc3cn(-c4ccc(F)cc4C(=O)N(C)C(C)C)c4cncc(C)c34)C2)CC1` [Compound 140], for which the IC50 with MOLM14 cells is 15 nM; in test [1], ~0.17 nM; in the test with MEIS1 mRNA expression (Homo sapiens, MOLM-14, 48 h), 49 nM.

Take `Cc1cncc2c1c(C[C@@H]1CCN(C[C@@H]3CCNC(=O)CC3)C1)cn2-c1ccc(F)cc1C(=O)N(C)C(C)C` (single isomer, unassigned) [Compound 169b]: the IC50 is 87 nM in the test on MOLM14 cells; 0.195 nM in test [1]; ~220 nM in the test with MEIS1 mRNA expression (Homo sapiens, MOLM-14, 48 h).

Consider `CC(=O)NC1CCC(N2CC[C@H](Cc3cn(-c4ccc(F)cc4C(=O)N(C)C(C)C)c4cncc(C)c34)C2)CC1` (stereo partly shown) [Compound 210], for which the 50% inhibitory concentration (IC50) in test [1] is 0.602 nM; in the test with MEIS1 mRNA expression, > 1000 nM.

For the compound `CC(=O)N1CCC([C@H](C)N2CC[C@@H](Cc3cn(-c4ccc(F)cc4[S@](=N)(=O)C(C)C)c4cncc(C)c34)C2)CC1` (single isomer, unassigned) [Compound 230b], the IC50 is 5.45 nM in test [1] and > 1000 nM in the test with MEIS1 mRNA expression (Homo sapiens, MOLM-14, 48 h).

On to `CC(=O)N1CCC(CN2CC[C@@H](Cc3cn(-c4ccc(F)cc4C(=O)N(C)C(C)C)c4cncc(C)c34)C2)CC1` [Compound 51], for which the IC50 came to 8 nM in the test with MOLM14 cells and 0.042 nM in test [1].

As to `CC(=O)NCC(C1CCN(C(C)=O)CC1)N1CC[C@@H](Cc2cn(-c3ccc(F)cc3C(=O)N(C)C(C)C)c3cncc(C)c23)C1` (mixture of isomers) [Compound 225], the IC50 is 0.637 nM in test [1] and 340 nM in the test with MEIS1 mRNA expression (Homo sapiens, MOLM-14, 48 h).

For `CC(=O)N[C@H]1CC[C@H](CN2CC[C@H](Cc3cn(-c4ccc(F)cc4C(=O)N(C)C(C)C)c4cncc(C)c34)C2)CC1` (single isomer, unassigned) [Compound 73], the concentration for half-maximal inhibition (IC50) in test [1] came out at 0.057 nM; with MEIS1 mRNA expression (Homo sapiens, MOLM-14, 48 h), 101 nM.

Consider `CC(=O)N1C[C@@H]2CN([C@H]3C[C@@H](CN4CC[C@H](Cc5cn(-c6ccc(F)cc6C(=O)N(C)C(C)C)c6cncc(C)c56)C4)C3)C[C@H]2C1` (single isomer, unassigned) [Compound 31], for which the concentration for half-maximal inhibition (IC50) in test [1] was 0.052 nM; in the test on MEIS1 mRNA expression (Homo sapiens, MOLM-14, 48 h) it was ~470 nM.

In the case of `Cc1cncc2c1c(CC1CN([C@H]3CCN4C(=O)CCC4C3)C1)cn2-c1ccc(F)cc1C(=O)N(C)C(C)C` (single isomer, unassigned) [Compound 309b], the IC50 in test [1] was 0.111 nM; in the test on MEIS1 mRNA expression (Homo sapiens, MOLM-14, 48 h), > 1000 nM.

`Cc1cncc2c1c(C[C@@H]1CCN(CC3CCN(C(=O)C(C)C)CC3)C1)cn2-c1ccc(F)cc1C(=O)N1CC(O)CC1C` (stereo partly shown) [Compound 333]: the IC50 in test [1] was 0.251 nM; in the test on MEIS1 mRNA expression (Homo sapiens, MOLM-14, 48 h) it was ~394 nM.
